Data reported in PubChem BioAssay (NCI).
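Five compound concentrations were applied to cells in 96-well plates for 48 hours; endpoints were derived by simple linear interpolation of the resulting dose-response curve. Here, GI50 denotes the concentration required for 50% inhibition of growth. The concentration for full growth arrest is given as TGI.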

Experiments:
Assay in all cases: NCI anticancer screen, dose series, 48 h
COLO 205 colon = system: COLO 205 colon
HL-60(TB) leukemia = system: HL-60(TB) leukemia
IGROV1 ovarian = system: IGROV1 ovarian
MALME-3M melanoma = system: MALME-3M melanoma
MDA-MB-231 breast = system: MDA-MB-231 breast
NCI-H23 lung = system: NCI-H23 lung
OVCAR-3 ovarian = system: OVCAR-3 ovarian
OVCAR-4 ovarian = system: OVCAR-4 ovarian
SN12C renal = system: SN12C renal
UO-31 renal = system: UO-31 renal

Row | Structure (SMILES) | TGI (COLO 205 colon) [µM] | TGI (HL-60(TB) leukemia) [µM] | TGI (IGROV1 ovarian) [µM] | TGI (MALME-3M melanoma) [µM] | TGI (MDA-MB-231 breast) [µM] | TGI (NCI-H23 lung) [µM] | TGI (OVCAR-3 ovarian) [µM] | TGI (OVCAR-4 ovarian) [µM] | TGI (SN12C renal) [µM] | TGI (UO-31 renal) [µM] | GI50 (COLO 205 colon) [µM] | GI50 (HL-60(TB) leukemia) [µM] | GI50 (IGROV1 ovarian) [µM] | GI50 (MALME-3M melanoma) [µM] | GI50 (MDA-MB-231 breast) [µM] | GI50 (NCI-H23 lung) [µM] | GI50 (OVCAR-3 ovarian) [µM] | GI50 (OVCAR-4 ovarian) [µM] | GI50 (SN12C renal) [µM] | GI50 (UO-31 renal) [µM]
1 | CC1=CCC2CC1C(C(=O)c1c[nH]c3ccccc13)=NC2(C)C (centres undefined) | > 100 | > 100 | > 100 | > 100 | > 100 | > 100 | > 100 | > 100 | > 100 | > 100 |  |  |  |  |  |  |  |  |  | 
2 | CC1=C(C#N)C23C(=O)N(c4ccccc4)C(=O)C2=C(O)C=CC3(O)N1Cc1ccc(Cl)cc1Cl (centres undefined) | 14.4 | 6.82 | 7.19 | 9.95 | 16.1 | 15.9 | 4.96 | 19.6 | 6.83 | 19.6 | 4.11 | 3.18 | 2.86 | 3.14 | 3.93 | 3.33 | 2.89 | 6.36 | 2.4 | 5.42
3 | NC(=S)N/N=C/c1ccc(OC(=O)COc2cc(Cl)c(Cl)cc2Cl)cn1 | > 100 | 47.9 | > 100 | > 100 | > 100 | > 100 | 58.2 | > 100 | > 100 | > 100 | 7.39 | 3.97 | 7.65 | 4.96 | 4.53 | 3.26 | 3.39 | 4.83 | 3.58 | 3.18
4 | Nc1ncc(-c2ccc3ncnc(Nc4cccc(Cl)c4)c3c2)cn1 |  |  | 0.223 |  | > 100 |  |  |  | > 100 | > 100 |  | 0.525 | 0.0206 |  | 2.22 |  |  |  | 1.82 | 0.452
5 | Cc1ccc(CNc2ccc3nc(CCC4CCCCC4)[nH]c3c2)cc1 | 3.66 | 4.62 | 10.3 | 4.07 | 3.33 | 4.88 | 11.4 | 18.7 | 11.4 | 3.3 | 1.88 | 1.98 | 2.28 | 1.74 | 1.68 | 2.1 | 3.06 | 3.23 | 2.77 | 1.35
6 | CC1(C)Oc2ccc3ccc(=O)oc3c2C(O)C1O (centres undefined) | 45.1 | > 100 | > 100 | > 100 | > 100 | > 100 | > 100 | > 100 | > 100 | > 100 |  |  |  |  |  |  |  |  |  | 
7 | Cc1ccc(S(=O)(=O)ON2C(=O)c3cccc4cc([N+](=O)[O-])cc(c34)C2=O)cc1 | > 100 |  | > 100 | > 100 | > 100 | > 100 | > 100 | > 100 | > 100 | > 100 |  |  |  |  |  |  |  |  |  | 
8 | COc1ccc2c(c1)c(-c1nc(-c3cn(C)c4ccncc34)cs1)cn2C |  | 4.49 | 3.65 | 3.58 | 3.53 | 3.45 | 3.77 | 4.62 | 3.49 | 3.17 |  | 1.96 | 1.92 | 2.02 | 1.83 | 1.81 | 1.99 | 2.1 | 1.85 | 1.58
9 | O=C1C2CCN(CC2)C1CN1CCOCC1 (centres undefined) | 3.27 | > 100 | 38.4 | 3.28 | 40.5 | 23.9 | 4.18 | 10.7 | 8.28 | 7.14 |  |  |  |  |  |  |  |  |  | 
10 | CCSC[C@@H]1C[C@](O)(c2ccc(Cl)cc2)[C@@H](c2ccc(Cl)cc2)O1 | 28.7 | 36 | 32.3 | 29.8 | 35.4 | 41.6 | 36.1 | 32.1 | 34.6 | 30.4 | 14.4 | 15.2 | 15.3 | 15.2 | 18.2 | 19.3 | 18.8 | 16.7 | 17.6 | 16.5
11 | CN(C)c1ccc(/C=N/NC(N)=S)nc1 | > 100 | 37.9 |  | > 100 | > 100 | > 100 | > 100 | > 100 | > 100 | 7.46 | 4.27 | 1.8 |  | 7.91 | 5.43 | 2.39 | 2.54 | 4.3 | 3.51 | 2.34
12 | Fc1cccc(COc2ccc(Nc3ncnc4onc(-c5ccccc5)c34)cc2)c1 | 0.787 | > 100 | > 100 | > 100 | 14.8 | > 100 | 2.19 | > 100 | > 100 | 26.8 | 0.202 | 0.0955 | 0.249 | 0.206 | 0.402 | 0.583 | 0.252 | 0.988 | 0.347 | 3
13 | O=C1c2c(c(=O)[nH]c3ccccc23)[C@H](c2ccccc2)[C@@H]2CCCN12 | 44.5 | 8.29 | 15.6 | 43.8 | 27.5 | 37.9 | 7.1 | 11.6 | > 100 | 7.05 | 14.6 | 1.98 | 3.59 | 6.87 | 3.06 | 2.77 | 2.46 | 2.63 | 3.38 | 2.1
14 | Cc1ccc(OCC2CO2)c(Br)c1 (centres undefined) | 32.3 | > 100 | 37.1 | > 100 | 58 | 76.7 | 68 | 29.4 | 45 | 39.1 |  |  |  |  |  |  |  |  |  | 
15 | COc1cc2nc(Nc3cccc(Cl)c3)nc(N)c2cc1OC | 3.39 | 39.4 | 25.4 | 6.62 | 14.5 | 33.2 | 12.6 | 26.3 | 24.3 | 20.9 | 1.68 | 10.7 | 11 | 2.47 | 4.28 | 14.2 | 4.12 | 10.7 | 12 | 6.66
